The numbers were not newly measured in article PMC5263201, “GABAA receptor occupancy by subtype selective GABAAα2,3 modulators: PET studies in humans” (Psychopharmacology, 2016), which cites them from elsewhere.

What all share (set-up): method as in Christian et al 2015
For one series, the target named is GABAA α3β3γ2. Particulars: recombinant Sf9 membranes α3β3γ2; [3H]flunitrazepam; mean (SD); ref Christian et al 2015; read-out: Affinity in vitro at BZ binding site (Ki) α3; cited from earlier work.
The test system of another series is GABAA α1β2γ2. As to conditions: 1µM test concentration, GABA EC10, % of 1 µM diazepam, mean ±SE, ref Christian et al 2015; cited from earlier work.
Another series concerns the target GABAA α5β3γ2. Particulars: recombinant Sf9 membranes α5β3γ2; [3H]flunitrazepam; mean (SD); ref Christian et al 2015; read-out: Affinity in vitro at BZ binding site (Ki) α5; cited from earlier work.

For `CCCNC(=O)c1nnc2c(-c3cc(OC)ccc3OC)cccc2c1N` [AZD6280], the Ki is 31 ± 17 nM on GABAA α3β3γ2 and 1680 ± 650 nM at GABAA α5β3γ2. The “Relative efficacy (%DZ) α1” value with GABAA α1β2γ2 is 9±3%.

Broadly, the Ki is a measure of affinity in units of concentration, obtained from inhibition or displacement.
